From US9585933B2, “Therapeutic use of peptide inhibitors of NADPH oxidase; aerosolization as a delivery mechanism” (University of Pittsburgh—Of the Commonwealth System of …, priority 2011, dated 2017)
Where no end group is shown, it is not given here.

Molecular target: T1, Nox1 oxidase (COS-Nox1 lysate: hNox1, p22phox, NOXO1, NOXA1) (Homo sapiens, UniProt Q9Y5S8)
T1 construct: expressed in transfected cells; host or cells: COS-22 cells (COS 7 with p22phox), transiently cotransfected; cell lysate used
T1 sequence (Q9Y5S8 1-564): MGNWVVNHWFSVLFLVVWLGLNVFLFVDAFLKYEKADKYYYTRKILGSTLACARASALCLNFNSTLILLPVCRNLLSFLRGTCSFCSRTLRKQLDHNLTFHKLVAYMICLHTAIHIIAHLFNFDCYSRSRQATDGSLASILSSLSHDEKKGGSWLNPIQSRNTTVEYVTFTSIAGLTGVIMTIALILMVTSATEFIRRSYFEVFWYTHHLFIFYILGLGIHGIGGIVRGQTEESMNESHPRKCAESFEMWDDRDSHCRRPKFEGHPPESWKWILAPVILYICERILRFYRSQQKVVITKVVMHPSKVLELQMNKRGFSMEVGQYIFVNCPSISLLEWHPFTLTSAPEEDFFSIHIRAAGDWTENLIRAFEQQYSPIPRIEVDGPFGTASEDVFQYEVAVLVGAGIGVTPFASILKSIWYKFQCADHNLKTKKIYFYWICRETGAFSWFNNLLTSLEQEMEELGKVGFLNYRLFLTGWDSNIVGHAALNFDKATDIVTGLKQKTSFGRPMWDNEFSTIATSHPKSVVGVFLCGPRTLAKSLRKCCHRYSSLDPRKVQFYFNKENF
T1 sequence (P13498 2-195 partner limits assumed): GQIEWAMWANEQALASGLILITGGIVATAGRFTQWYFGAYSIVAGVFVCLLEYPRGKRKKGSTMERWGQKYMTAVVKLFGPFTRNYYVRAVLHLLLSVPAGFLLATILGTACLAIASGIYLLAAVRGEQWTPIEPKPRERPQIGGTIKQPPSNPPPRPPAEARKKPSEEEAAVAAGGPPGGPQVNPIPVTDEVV
Assay: Cell-free SOD-inhibitable cytochrome c reduction assay, O2- production in COS-Nox1 lysates
Format: biochemical
Description: To test this hypothesis, the inhibitory activity of Nox2ds was assessed in cell-free assays using reconstituted systems expressing either Nox1, 2 or 4 oxidase. Nox 2 oxidase was recapitulated by stably transfecting COS 7 cells with Nox2, p22phox, p47phox, and p67phox (aka COS-Nox2). Nox1 oxidase was obtained by transfecting COS 7 cells with Nox1, p22phox, NOXO1 and NOXA1 (COS-Nox1), and Nox 4 oxidase was regenerated by transfection of COS 7 cells with Nox4 and p22phox. […] Our new data support selectivity of Nox2ds peptide in differentiating the contribution of Nox2 vs. Nox1 and Nox4 NADPH oxidase and its potential clinical use in ameliorating cardiopulmonary diseases.
Cell transfection was carried out using Lipofectamine LTX and Plus reagent (Invitrogen), according to the manufacturer's instructions. COS-22 cells were transiently cotransfected with pcDNA 3.1-hNox1, pCMVsport 6-hNOXA1, and pcDNA3.1-hNoxO1 (COS-Nox1/NOXO1/NOXA1 cells). Cells were used 24 h after transfection. […]
Superoxide (O2^−) production was measured in COS-Nox1 and COS-Nox2 lysates by determining the rate of O2^− dismutase (SOD) inhibitable cytochrome c reduction and by electron paramagnetic resonance (EPR). […]
O2^− production was initiated by the addition of NADPH and measured by the SOD-inhibitable cytochrome c reduction for 10 min.

Which “inhibition of Nox1-derived O2- production (in words)” value does the source give for CSTRVRRQL-NH2 [Nox2ds, CSTRVRRQL] here?
The value was “did not inhibit”.

And the “rate of Nox1-derived O2- production, cytochrome c reduction” value (10 μM peptide, 0 μM control 0.97±0.14)?
The value was 0.765±0.19 nmol O2^−/min/10^7 cell equivalents.
